# Laboratory results reported in patent publication US20240133870A1, “COMBINED TREATMENT FOR CANCER” (Yeda Research and Development Co. Ltd., priority 2021, published 2024).
# Tests used:
# human NSCLC tumor biopsy = assay: EVOC of NSCLC patient biopsies, viability; type: cell-based
# Description: Error bars represent standard error. […] Scale bar represents 50 μm. […] Error bars represent standard error. […] Scale bar represents 50 μm.
# Scale bar represents 50 μm. […] Scale bar represents 50 μm. […] Scale bar represents 50 μm.
# [1] = test system: pERK in UACC62 xenograft tumors; assay: EVOC of xenograft tumors in various tissues, pERK immunohistochemistry; type: cell-based, human; conditions: skin tumors; AZD4547 2 μM added to vemurafenib 4 μM
# Experimental: (§1) SK-MEL-5 BRAF (V600E) melanoma cells were co-cultured with the lung-derived stromal cell line WI-38 or with the bone marrow-derived stromal cell line HS-5 with or without vemurafenib (4 μM). […] Vehicle—DMSO, EGFRi—gefitinib (0.1 μM), EGFRi/HER2i—lapatinib (10 nM), METi—crizotinib (0.1 μM), FGFRi—AZD4547 (50 nM), NFkB/TNFRi—CAPE (10 μM), TGFBRi-LY2109761 (0.5 μM), gp130i—SC144 (1 nM). P-values were calculated by two-sided t-test. *** P<0.001. Error bars represent standard error. […] P-values were calculated by two-sided t-test. *** P<0.001. Error bars represent standard error. […] Human BRAF (V600E) melanoma cell lines UACC62 or G361 were used to generate xenograft tumor models in various tissues of nude mice. When tumors reached a volume of 500-700 μmm^3, they were resected, sliced, and cultured ex-vivo in the presence of different drug combinations or DMSO control. Following 4 days of drug treatment, slices were fixed, embedded in paraffin blocks, and subjected to immunohistochemistry, using anti-pERK antibody, or to immuno-fluorescence, using anti-pFGFR1 antibody. BRAFi (vemurafenib, 4 μM), FGFRi (AZD4547, 2 μM). […]
# (§2) For the ex-vivo experiments EVOCs from immunocompromised mice bearing human tumors were generated, as further described hereinbelow. For the in-vivo validation experiments, mice bearing subcutaneous tumors were used; and response was measured by evaluating tumor volume. […]
# [2] = test system: pERK in G361 xenograft tumors; assay: as above; type: cell-based, human; conditions: co-treatment with vemurafenib 4 μM and AZD4547 2 μM
# Experimental: as §1, §2
# [3] = test system: SK-MEL-5 BRAF (V600E) melanoma cells; assay: Co-culture of stroma (WI-38 or HS-5) and cancer cells; type: cell-based, human; conditions: co-culture with HS-5; inhibitor added to vemurafenib
# Experimental: SK-MEL-5 BRAF (V600E) melanoma cells were co-cultured with the lung-derived stromal cell line WI-38 or with the bone marrow-derived stromal cell line HS-5 with or without vemurafenib (4 μM). […] Vehicle—DMSO, EGFRi—gefitinib (0.1 μM), EGFRi/HER2i—lapatinib (10 nM), METi—crizotinib (0.1 μM), FGFRi—AZD4547 (50 nM), NFkB/TNFRi—CAPE (10 μM), TGFBRi-LY2109761 (0.5 μM), gp130i—SC144 (1 nM). […] Error bars represent standard error. […] Error bars represent standard error. […] Human BRAF (V600E) melanoma cell lines UACC62 or G361 were used to generate xenograft tumor models in various tissues of nude mice. When tumors reached a volume of 500-700 μmm^3, they were resected, sliced, and cultured ex-vivo in the presence of different drug combinations or DMSO control. Following 4 days of drug treatment, slices were fixed, embedded in paraffin blocks, and subjected to immunohistochemistry, using anti-pERK antibody, or to immuno-fluorescence, using anti-pFGFR1 antibody. BRAFi (vemurafenib, 4 μM), FGFRi (AZD4547, 2 μM). Scale bar represents 50 μm.
# Four hours later, the melanoma BRAF (V600E) mutated cell line SK-MEL-5 was seeded on top of the stromal cells at a concentration of 1700 cells per well, or seeded without stroma. […] Concentrations of the inhibitors were based on dose curves with SK-MEL-5. For each inhibitor of potential mechanism of resistance, the maximal concentration with minimal effect (toxicity) on cell growth was selected (Cmax).
# To compare rScore value of stroma-mediated resistance with or without a given inhibitor, the rScore values of each inhibitor in the presence of stroma, was calculated. As a reduction in rScore may stem from mere toxicity of the inhibitor, rather than the abrogation of the stroma mediated resistance, each inhibitor rScore was penalized by its toxicity.
# rScoreinhibitor=rScoreinhibitor+(rScorestroma−rScoreinhibitor)*tOxicitY(Cmax)inhibitor
# [4] = test system: colorectal BRAF (V600E) patient tumor; assay: EVOC of a colorectal BRAF (V600E) patient biopsy, viability; type: cell-based, human; conditions: Dabrafenib 4 μM/trametinib 0.5 μM with or without trastuzumab or AZD4547 2 μM
# Experimental: Freshly resected biopsy was sliced, and cultured ex vivo. Following 4 days of drug treatment, slices were fixed and embedded in paraffin blocks. FFPE slices were stained by H&E, and the percentage of viable cancer cells was morphologically assessed on H&E stained sections by a pathologist as the ratio between viable cancer cell area and total cancer area (viable cancer cells plus necrotic cancer cells). […] Vehicle—DMSO, FGFRi—AZD4547 2 μM, HER2i—trastuzumab 30 g/ml, BRAFi/MEKi—Dabrafenib 4 μM/trametinib 0.5 μM.
# Tumor tissue was obtained from patients at the time of operation or at the time of tissue core biopsy. Following resection, the fresh tissue was placed in ice-cold PBS for immediate transfer to the lab for ex vivo organ culturing. […]
# Immunohistochemistry of EVOC tissues: To assess response therapy, 4 μm FFPE tissue slices were stained with H&E, or with specific antibodies: anti-pERK (Cell Signaling, #4370) followed by HRP conjugated secondary antibody (anti-Rabbit HRP, ZUC032, ZytoChem) and DAB staining (DAB substrate kit, DAB057, ZytoChem). […] All slides were scanned using the Pannoramic SCAN II (3[sequence]) and analyzed by a pathologist. The percentage of viable cancer cells was morphologically assessed on H&E stained sections by a pathologist as the ratio between viable cancer cell area and total cancer area (viable cancer cells plus necrotic cancer cells).
substance,measurement,setting,value
AZD4547,"response, cancer cell viability","human NSCLC tumor biopsy; patient refractory to osimertinib, osimertinib 4 μM with AZD4547 2 μM",improved response as compared to osimertinib alone
same,cancer cells viability,"human NSCLC tumor biopsy; treatment-naïve patient, AZD4547 0.2 μM added to gefitinib 1.6 μM",significantly reduced cancer cells viability
same,cancer cell viability,"human NSCLC tumor biopsy; treatment-naïve patient, in combination with osimertinib 4 μM",did not affect cancer cell viability
same,pERK inhibition,[1],near complete inhibition of pERK
same,pERK downregulation,[2],sufficient to downregulate pERK in all of the different tumor locations
same,abrogation of stroma-mediated resistance to vemurafenib,[3],needed to abrogate the resistance effect of HS-5
same,cancer cell viability,[4],did not improve the response to treatment
